According to US20090270443A1, “1-AMINO IMIDAZO-CONTAINING COMPOUNDS AND METHODS” (priority 2004, published 2009):

| melting point [°C] | Structure (SMILES) |
| --- | --- |
| 166 to 168 | CCOCc1nc2c(N)nc(C)c(C)c2n1NCCCNC(=O)C1CCCCC1 [Example 14, N-{3-[(4-Amino-2-ethoxymethyl-6,7-dimethyl-1H-imidazo[4,5-c]pyridin-1-yl)amino]propyl}cyclohexanecarboxamide] |
| 237 to 239 | Nc1nc2cccnc2c2c1nc(CO)n2NCc1ccccc1 [Example 35, (4-Amino-1-benzylamino-1H-imidazo[4,5-c][1,5]naphthyridin-2-yl)methanol] |
